This assay has as its target T1, HCV Protease (HCV NS3-4A) (Hepatitis C virus genotype 1a, UniProt P27958).
T1 construct: HCV Protease: HCV NS3-4A, self-prepared; made in house
As to the kind of experiment: HCV Protease (HCV NS3-4A) anti-activity assay, fluorescence quenching (FRET). The class given is biochemical. How it is done:
Method of HCV Protease (HCV NS3-4A) Anti-Activity Assay:
HCV Protease (HCV NS3/4A) anti-activity was measured by an inter fluorescence quenching system. EDANS group and DABCYL group were bonded on each side of a peptide. When protein cleavage started, fluorescence quenching of EDANS by DABCYL was detected. We used a high throughput screening model for HCV NS3/4A protease inhibitors, the tested drugs were prepared with 5 different concentrations, positive control and negative control were set in the same time. In the optimized reaction system, fluorescence were determined at ex=355, em=520 by a Polarstar fluorescence detector. Calculate the inhibition rate of each concentration; calculate the half maximal inhibitory concentration (IC50) with the method of Reed-Muench.
Materials: HCV Protease: HCV NS3-4A, self-prepared, stored at −70. HCV Protease substrate (FRET-S): Ac-Asp-Glu-Asp(EDANS)-Glu-Glu-Abu-ψ-[COO]-Ala-Ser-Lys-(DABCYL)-NH2, supplied by AnaSpec USA, prepared of 100 μM by DMSO, distributed and stored at −20 without light. Buffer solution: 30 mM NaCl, 5 mM CaCl2, 10 mM DTT, 50 mM Tris (pH7.8).
Instrument: fluorescence detector Polarstar from Germany Company BMG
Preparation and operation: preparation of 10 mg/mL by DMSO, dilute of 10000, 2000, 400, 80, 16 ng/mL as tested concentrations by buffer solutions, adding 20 μL into each well, the total reaction system is 200 μL, to make the final concentrations of 1000, 200, 40, 8, 1.6 ng/mL. Add 140 μL buffer solution, 20 μL drug solution, 20 μL HCV protease, and 20 μL FRET-S substrate with final concentration of 0.25 μM into 96-well fluorescence microtiterplate, the reaction started at 37, set control wells of protease-substrate reaction and of isolate substrate and isolate protease, fluorescence signals were detected by fluorescence detector (ex=355,em=520). Calculate the inhibition rates of samples for each concentration by comparison of fluorescence value of sample in each well and the fluorescence control value of enzyme, calculate the half maximal inhibitory concentration (IC50) of samples to HCV protease with the method of Reed-Muench.
THF and Et2O were distilled from sodium metal and benzophenone. DCM, pentane and hexane were distilled form calcium hydride. Special raw materials and intermediates in the invention were supplied by Zannan SciTech Co. for ordered processing, Ltd. in Shanghai, others reagents were purchased from Shanghai reagent company, Aldrich, Acros etc. If intermediates or products of synthesis were not enough for the next step of reaction, the synthesis shall be repeated until it is sufficient. The HCV protease (HCV NS3-4A) inhibitory activity assays in the present invention were performed by relevant cooperation service units of China Institutes for Biological Science in Beijing.

Molecules are shown by their SMILES.

T1 sequence (P27958 1658-1711): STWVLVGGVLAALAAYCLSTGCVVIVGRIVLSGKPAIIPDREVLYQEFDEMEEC
T1 sequence (P27958 1027-1657): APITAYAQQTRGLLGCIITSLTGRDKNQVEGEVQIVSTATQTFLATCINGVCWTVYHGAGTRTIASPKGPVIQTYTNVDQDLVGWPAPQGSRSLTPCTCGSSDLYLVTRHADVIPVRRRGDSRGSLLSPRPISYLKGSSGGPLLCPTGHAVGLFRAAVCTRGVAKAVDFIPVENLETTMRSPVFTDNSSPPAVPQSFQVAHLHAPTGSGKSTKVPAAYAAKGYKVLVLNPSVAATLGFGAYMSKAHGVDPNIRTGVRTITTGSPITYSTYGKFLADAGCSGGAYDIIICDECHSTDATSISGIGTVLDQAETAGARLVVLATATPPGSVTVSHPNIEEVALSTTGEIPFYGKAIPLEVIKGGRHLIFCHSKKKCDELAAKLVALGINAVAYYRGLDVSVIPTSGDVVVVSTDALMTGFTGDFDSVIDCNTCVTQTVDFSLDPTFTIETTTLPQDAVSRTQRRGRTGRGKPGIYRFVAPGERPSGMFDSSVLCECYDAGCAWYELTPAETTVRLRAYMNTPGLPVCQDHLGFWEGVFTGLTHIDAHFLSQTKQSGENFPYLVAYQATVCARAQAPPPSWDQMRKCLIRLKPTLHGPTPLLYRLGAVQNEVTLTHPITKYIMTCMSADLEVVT

What is called IC50 is the concentration that inhibits the measured activity by half. Higher therefore signals weaker potency. As for `CC[C@H]1C[C@@]1(NC(=O)C1C[C@@H]2CN1C(=O)[C@H](C(C)(C)C)NC(=O)OCCCCCCc1c3c(cc4c1OCO4)CN(C3)C(=O)O2)C(=O)NS(=O)(=O)C1CC1` (stereo partly drawn) [Compound 15bx], the IC50 was in the range of 0.1 to 5 nM.
Consider `CC[C@H]1C[C@@]1(NC(=O)C1C[C@@H]2CN1C(=O)[C@H](C(C)(C)C)NC(=O)OCCCCCCNC(=O)c1cccc3c1CN(C3)C(=O)O2)C(=O)NS(=O)(=O)C1CC1` (stereo partly drawn) [Compound 15bb], for which the IC50 lay within 5.1 to 50 nM.
The value for `CC[C@H]1C[C@@]1(NC(=O)C1C[C@@H]2CN1C(=O)[C@H](C(C)(C)C)NC(=O)OCC(C)(C)OCCCCOc1cccc3c1CN(C3)C(=O)O2)C(=O)NS(=O)(=O)C1CC1` (stereo partly drawn) [Compound 15am] was 0.1 to 5 nM; that for `CC[C@H]1C[C@@]1(NC(=O)C1C[C@@H]2CN1C(=O)[C@H](C(C)(C)C)NC(=O)OCC1(CCCCOc3cccc4c3CN(C4)C(=O)O2)CC1)C(=O)NS(=O)(=O)C1CC1` (stereo partly drawn) [Compound 15e] was 0.1 to 5 nM; that for `CC[C@H]1C[C@@]1(NC(=O)C1C[C@@H]2CN1C(=O)[C@H](C(C)(C)C)NC(=O)OCC1(CCCCCOc3cccc4c3CN(C4)C(=O)O2)CC1)C(=O)NS(=O)(=O)C1CC1` (stereo partly drawn) [Compound 15a] was 0.1 to 5 nM.
Take `CC[C@H]1C[C@@]1(NC(=O)C1C[C@@H]2CN1C(=O)[C@H](C(C)(C)C)NC(=O)OCCCC/C=C/COc1ccc3c(c1)CN(C3)C(=O)O2)C(=O)NS(=O)(=O)C1CC1` (stereo partly drawn) [Compound 15bg]: the IC50 was 0.1 to 5 nM.
The value for `CC[C@H]1C[C@@]1(NC(=O)C1C[C@@H]2CN1C(=O)[C@H](C(C)(C)C)NC(=O)OCC(C)(C)CCCCOc1ccc(Cl)c3c1CN(C3)C(=O)O2)C(=O)NS(=O)(=O)C1CC1` (stereo partly drawn) [Compound 15ax] was 0.1 to 5 nM; that for `CC[C@H]1C[C@@]1(NC(=O)C1C[C@@H]2CN1C(=O)[C@H](C(C)(C)C)NC(=O)OCCCCCCCCCOc1cccc3c1CN(C3)C(=O)O2)C(=O)NS(=O)(=O)C1CC1` (stereo partly drawn) [Compound 15z] was 5.1 to 50 nM.
Take `C=C[C@H]1C[C@@]1(NC(=O)C1C[C@@H]2CN1C(=O)[C@H](C(C)(C)C)NC(=O)OCCCC/C=C\c1c3c(cc4c1OCO4)CN(C3)C(=O)O2)C(=O)NS(=O)(=O)C1CC1` (stereo partly drawn) [Compound 15bu]: the IC50 was 0.1 to 5 nM.
For `C=C[C@H]1C[C@@]1(NC(=O)C1C[C@@H]2CN1C(=O)[C@H](C(C)(C)C)NC(=O)OCCC/C=C/CCOc1cccc3c1CN(C3)C(=O)O2)C(=O)NS(=O)(=O)C1CC1` (stereo partly drawn) [Compound 15an], the IC50 lay in the range of 0.1 to 5 nM.
On to `CCC1CC1(NC(=O)C1CC2CN1C(=O)C(C(C)(C)C)NC(=O)OCC(C)(C)CCCCCOc1cc(OC)cc3c1CN(C3)C(=O)O2)C(=O)NS(=O)(=O)C1CC1` (stereo not drawn) [Compound 15v], for which the IC50 was 0.1 to 5 nM.
The value for `C=C[C@H]1C[C@@]1(NC(=O)C1C[C@@H]2CN1C(=O)[C@H](C(C)(C)C)NC(=O)OCCCCCOc1cccc3c1CN(C3)C(=O)O2)C(=O)NS(=O)(=O)C1CC1` (stereo partly drawn) [Compound 15af] was 0.1 to 5 nM.
The same measure for `C=C[C@H]1C[C@@]1(NC(=O)C1C[C@@H]2CN1C(=O)[C@H](C(C)(C)C)NC(=O)OCC1(CC/C=C/COc3cccc4c3CN(C4)C(=O)O2)CC1)C(=O)NS(=O)(=O)C1CC1` (stereo partly drawn) [Compound 15c]: 0.1 to 5 nM.
As for `C=C[C@H]1C[C@@]1(NC(=O)C1C[C@@H]2CN1C(=O)[C@H](C(C)(C)C)NC(=O)OCC/C=C/COc1cccc3c1CN(C3)C(=O)O2)C(=O)NS(=O)(=O)C1CC1` (stereo partly drawn) [Compound 15ad], the IC50 was in the range of 0.1 to 5 nM.
Compound `CC[C@H]1C[C@@]1(NC(=O)C1C[C@@H]2CN1C(=O)[C@H](C(C)(C)C)NC(=O)OCCCCCCOCc1cccc3c1CN(C3)C(=O)O2)C(=O)NS(=O)(=O)C1CC1` (stereo partly drawn) [Compound 15aw] displayed an IC50 of 5.1 to 50 nM.
As for `CC[C@H]1C[C@@]1(NC(=O)C1C[C@@H]2CN1C(=O)[C@H](C(C)(C)C)NC(=O)OCCCC/C=C/COc1c(OC)ccc3c1CN(C3)C(=O)O2)C(=O)NS(=O)(=O)C1CC1` (stereo partly drawn) [Compound 15q], the IC50 was in the range of 5.1 to 50 nM.
The same measure for `CC[C@H]1C[C@@]1(NC(=O)C1C[C@@H]2CN1C(=O)[C@H](C(C)(C)C)NC(=O)OCC1(CC/C=C/COc3cccc4c3CN(C4)C(=O)O2)CC1)C(=O)NS(=O)(=O)C1CC1` (stereo partly drawn) [Compound 15b]: 0.1 to 5 nM; for `CC[C@H]1C[C@@]1(NC(=O)C1C[C@@H]2CN1C(=O)[C@H](C(C)(C)C)NC(=O)OCCCCCCOc1cccc3c1CN(C3)C(=O)O2)C(=O)NS(=O)(=O)C1CC1` (stereo partly drawn) [Compound 15w]: 0.1 to 5 nM; for `CCC1CC1(NC(=O)C1CC2CN1C(=O)C(C(C)(C)C)NC(=O)OCCCC=CCOc1ccc3c(c1)CN(C3)C(=O)O2)C(=O)NS(=O)(=O)C1CC1` (stereo not drawn) [Compound 15bk]: 5.1 to 50 nM.
The same measure for `CC[C@H]1C[C@@]1(NC(=O)C1C[C@@H]2CN1C(=O)[C@H](C(C)(C)C)NC(=O)OCCCCCCOC(=O)c1ccc3c(c1)CN(C3)C(=O)O2)C(=O)NS(=O)(=O)C1CC1` (stereo partly drawn) [Compound 15bq]: 51 to 300 nM.
As for `CCC1CC1(NC(=O)C1CC2CN1C(=O)C(C(C)(C)C)NC(=O)OCCCCCCCCOc1cccc3c1CN(C3)C(=O)O2)C(=O)NS(=O)(=O)C1CC1` (stereo not drawn) [Compound 15y], the IC50 was 5.1 to 50 nM.
Consider `CC[C@H]1C[C@@]1(NC(=O)C1C[C@@H]2CN1C(=O)[C@H](C(C)(C)C)NC(=O)OCC/C=C/COc1cccc3c1CN(C3)C(=O)O2)C(=O)NS(=O)(=O)C1CC1` (stereo partly drawn) [Compound 15ae], for which the IC50 was 0.1 to 5 nM.
The same measure for `CCC1CC1(NC(=O)C1CC2CN1C(=O)C(C(C)(C)C)NC(=O)OCCC=CCOc1c(OC)ccc3c1CN(C3)C(=O)O2)C(=O)NS(=O)(=O)C1CC1` (stereo not drawn) [Compound 15m]: 5.1 to 50 nM.
In turn, `CC[C@H]1C[C@@]1(NC(=O)C1C[C@@H]2CN1C(=O)[C@H](C(C)(C)C)NC(=O)OCC(C)(C)CCCCN(C)c1cccc3c1CN(C3)C(=O)O2)C(=O)NS(=O)(=O)C1CC1` (stereo partly drawn) [Compound 15cd] registered an IC50 of 0.1 to 5 nM.
The value for `CC[C@H]1C[C@@]1(NC(=O)C1C[C@@H]2CN1C(=O)[C@H](C(C)(C)C)NC(=O)OCC(C)(C)C/C=C/COc1c(OC)ccc3c1CN(C3)C(=O)O2)C(=O)NS(=O)(=O)C1CC1` (stereo partly drawn) [Compound 15h] was 5.1 to 50 nM; that for `C=C[C@H]1C[C@@]1(NC(=O)C1C[C@@H]2CN1C(=O)[C@H](C(C)(C)C)NC(=O)OCC/C=C/COc1ccc3c(c1)CN(C3)C(=O)O2)C(=O)NS(=O)(=O)C1CC1` (stereo partly drawn) [Compound 15bm] was 51 to 300 nM.
As to `C=C[C@H]1C[C@@]1(NC(=O)C1C[C@@H]2CN1C(=O)[C@H](C(C)(C)C)NC(=O)OCC(C)(C)CC/C=C/COc1cccc3c1CN(C3)C(=O)O2)C(=O)NS(=O)(=O)C1CC1` (stereo partly drawn) [Compound 15au], the IC50 lay in the range of 0.1 to 5 nM.
In turn, `C=C[C@H]1C[C@@]1(NC(=O)C1C[C@@H]2CN1C(=O)[C@H](C(C)(C)C)NC(=O)OCCC/C=C/COc1c(OC)ccc3c1CN(C3)C(=O)O2)C(=O)NS(=O)(=O)C1CC1` (stereo partly drawn) [Compound 15k] had an IC50 of 0.1 to 5 nM.
`C=C[C@H]1C[C@@]1(NC(=O)C1C[C@@H]2CN1C(=O)[C@H](C(C)(C)C)NC(=O)OCCCC/C=C/COc1c(OC)ccc3c1CN(C3)C(=O)O2)C(=O)NS(=O)(=O)C1CC1` (stereo partly drawn) [Compound 15j] returned an IC50 of 0.1 to 5 nM.
The value for `C=C[C@H]1C[C@@]1(NC(=O)C1C[C@@H]2CN1C(=O)[C@H](C(C)(C)C)NC(=O)OCCCC/C=C/COc1ccc3c(c1)CN(C3)C(=O)O2)C(=O)NS(=O)(=O)C1CC1` (stereo partly drawn) [Compound 15bh] was 0.1 to 5 nM; that for `CC[C@H]1C[C@@]1(NC(=O)C1C[C@@H]2CN1C(=O)[C@H](C(C)(C)C)NC(=O)OCC(C)(C)CCCCCOCc1cccc3c1CN(C3)C(=O)O2)C(=O)NS(=O)(=O)C1CC1` (stereo partly drawn) [Compound 15av] was 5.1 to 50 nM; that for `C=C[C@H]1C[C@@]1(NC(=O)C1C[C@@H]2CN1C(=O)[C@H](C(C)(C)C)NC(=O)OCC(C)(C)OCCCCOc1cccc3c1CN(C3)C(=O)O2)C(=O)NS(=O)(=O)C1CC1` (stereo partly drawn) [Compound 15ak] was 0.1 to 5 nM.
For the compound `C=C[C@H]1C[C@@]1(NC(=O)C1C[C@@H]2CN1C(=O)[C@H](C(C)(C)C)NC(=O)OCC(C)(C)CCCCOc1cccc3c1CN(C3)C(=O)O2)C(=O)NS(=O)(=O)C1CC1` (stereo partly drawn) [Compound 15as], the IC50 lay in the range of 0.1 to 5 nM.

For the origin of these results see patent US8962810B2, “Macrocyclic heterocyclic compound for inhibiting hepatitis C virus and preparation and use thereof” (AB Pharma Ltd., priority 2011, dated 2015).
